Test results taken from BindingDB's records for doi:10.1021/acsmedchemlett.6b00243 (Amgen, 2016).

Target: Sodium channel protein type 5 subunit alpha (Homo sapiens, UniProt Q14524)
Test: Inhibition of human Nav1.5 expressed in HEK293 cells assessed as inhibition of sodium current at holding potential of -125 mV measured for 3 to 5 mins by whole cell voltage clamp method

Sequence of Sodium channel protein type 5 subunit alpha (Q14524 whole entry): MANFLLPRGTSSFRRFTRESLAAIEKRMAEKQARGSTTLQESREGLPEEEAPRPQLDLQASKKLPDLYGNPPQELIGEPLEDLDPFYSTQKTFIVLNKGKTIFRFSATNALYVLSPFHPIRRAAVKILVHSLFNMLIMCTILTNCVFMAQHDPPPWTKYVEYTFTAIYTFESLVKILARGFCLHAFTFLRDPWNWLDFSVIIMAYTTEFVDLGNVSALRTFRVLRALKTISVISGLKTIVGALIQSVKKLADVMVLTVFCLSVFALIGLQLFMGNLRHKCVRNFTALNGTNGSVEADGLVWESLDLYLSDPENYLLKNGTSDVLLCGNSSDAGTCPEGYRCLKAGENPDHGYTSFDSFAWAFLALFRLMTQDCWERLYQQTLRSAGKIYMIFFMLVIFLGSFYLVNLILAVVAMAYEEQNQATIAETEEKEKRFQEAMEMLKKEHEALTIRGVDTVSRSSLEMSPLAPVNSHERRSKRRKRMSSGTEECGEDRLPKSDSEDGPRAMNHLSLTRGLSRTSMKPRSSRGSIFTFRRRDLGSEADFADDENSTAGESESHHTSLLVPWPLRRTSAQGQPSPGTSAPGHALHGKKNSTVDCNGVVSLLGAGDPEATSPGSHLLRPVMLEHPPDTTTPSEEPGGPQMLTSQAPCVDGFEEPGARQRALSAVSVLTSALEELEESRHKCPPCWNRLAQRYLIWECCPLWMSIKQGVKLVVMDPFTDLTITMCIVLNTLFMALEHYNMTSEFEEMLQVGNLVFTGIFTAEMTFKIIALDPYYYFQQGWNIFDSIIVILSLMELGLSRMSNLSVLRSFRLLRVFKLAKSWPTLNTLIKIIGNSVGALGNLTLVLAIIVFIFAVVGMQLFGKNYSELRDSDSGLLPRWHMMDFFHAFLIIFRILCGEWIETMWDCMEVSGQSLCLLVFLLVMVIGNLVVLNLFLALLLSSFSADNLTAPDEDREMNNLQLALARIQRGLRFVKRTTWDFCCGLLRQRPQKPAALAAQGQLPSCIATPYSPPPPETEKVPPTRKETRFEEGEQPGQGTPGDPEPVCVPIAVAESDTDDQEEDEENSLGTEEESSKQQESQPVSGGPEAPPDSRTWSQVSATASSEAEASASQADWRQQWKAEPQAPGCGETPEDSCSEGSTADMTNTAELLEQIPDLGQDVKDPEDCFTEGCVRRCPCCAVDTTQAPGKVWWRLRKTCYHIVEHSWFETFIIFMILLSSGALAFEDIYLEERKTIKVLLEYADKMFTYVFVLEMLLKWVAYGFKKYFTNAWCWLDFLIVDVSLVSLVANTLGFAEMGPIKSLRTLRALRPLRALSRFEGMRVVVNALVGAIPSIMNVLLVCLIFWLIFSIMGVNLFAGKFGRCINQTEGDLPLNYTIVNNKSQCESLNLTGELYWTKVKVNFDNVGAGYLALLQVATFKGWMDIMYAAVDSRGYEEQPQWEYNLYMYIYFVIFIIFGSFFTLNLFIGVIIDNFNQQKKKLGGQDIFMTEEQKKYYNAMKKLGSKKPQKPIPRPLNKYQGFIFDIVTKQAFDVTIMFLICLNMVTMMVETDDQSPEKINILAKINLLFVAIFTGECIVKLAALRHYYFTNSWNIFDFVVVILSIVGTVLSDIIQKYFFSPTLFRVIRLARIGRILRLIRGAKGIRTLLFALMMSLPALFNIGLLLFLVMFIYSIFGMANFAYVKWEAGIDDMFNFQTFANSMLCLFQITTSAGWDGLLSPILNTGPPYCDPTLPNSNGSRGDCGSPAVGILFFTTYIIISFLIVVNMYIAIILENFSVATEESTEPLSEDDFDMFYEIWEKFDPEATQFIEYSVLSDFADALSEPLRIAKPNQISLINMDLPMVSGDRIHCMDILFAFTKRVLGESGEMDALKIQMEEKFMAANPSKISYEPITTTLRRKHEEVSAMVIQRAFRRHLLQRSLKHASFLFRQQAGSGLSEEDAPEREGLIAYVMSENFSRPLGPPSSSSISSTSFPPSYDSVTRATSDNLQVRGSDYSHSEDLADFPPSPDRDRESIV

Row | SMILES | IC50
1 | COc1cc(C(F)(F)F)ccc1-c1cnnc2cc(S(=O)(=O)Nc3nccs3)ccc12 [US9012443, 259] | > 30 µM
2 | COc1cc(C(F)(F)F)ccc1-c1n[nH]c(=O)c2cc(S(=O)(=O)Nc3nccs3)ccc12 [US9012443, 293] | > 30 µM
